Results: patent publication US7345158B2, “Actin related cytoskeletal protein “LACS”” (Anges MG, Inc., priority 2002, dated 2008)
Positions of bridges follow the written chain, without caps; N, C: chain ends. No end group written: not given here.

Tests used:
[1] = system: LACS mRNA expression in cardiac tissues; assay: LACS mRNA expression in cardiac tissues of L-NAME-administered WKY rats (Northern blotting); format: in vivo, rat; conditions: male WKY rats, oral L-NAME 100 mg/L
Experimental: RNAs were extracted from the hearts of a male WKY rat group that has been subjected to a one-week oral administration of L-NAME (100 mg/L), and from the hearts of a control group without L-NAME administration. […] As a result, a novel LACS (L-NAME related actin cytoskeletal protein) gene was successfully isolated. […] Furthermore, mRNA expression in tissues other than the heart was also analyzed by Northern blotting. […] Particularly with the heart, the expression of LACS mRNA was confirmed in the myocardial cells.

[2] = system: LACS expression in cultured myocardial cells; assay: LACS protein expression in cultured myocardial cells under hypertrophic agonist stimulation; format: cell-based, rat; conditions: for LACS protein expression on hypertrophic agonist stimulation: primary cultured neonatal rat myocardial cells
Experimental: Primary cultures of myocardial cells isolated from neonatal rats (one- to three-day old) using trypsin and collagenase were prepared. For the first 24 to 48 hours, the cells were cultured in a serum-containing medium, and then for another 24 hours in a serum-free medium.
Myocardial cells cultured by the same method in Example 4 were used. First, cells were stimulated with the representative hypertrophic agonists, AngII, phenylephrine, and Endothelin-1.
LACS expression which increases upon phenylephrine stimulation was suppressed by the simultaneous administration of 10 μM of Y27632 (ROCK inhibitor; Calbiochem). […] Rho is a low-molecular-weight GTP-binding protein (small G protein) involved in the contraction of smooth muscles, and regulation of cytokinesis, cell motility, and cytomorphology, via reorganization of actin filaments.

[3] = system: LACS mRNA expression in the heart; assay: LACS mRNA expression in the hearts of AngII infusion rats; format: in vivo, rat; conditions: osmotic pump 0.7 mg/kg/day
Experimental: Cardiac tissues derived from AngII infusion rats (osmotic pump: 0.7 mg/kg/day), and SHRs of 4 weeks and 24 weeks, were used. ATIR antagonist (ARB) and hydrazine (Hyd) were used as antihypertensive agents. Each of the antihypertensive agents was used at an amount sufficient for lowering the blood pressure (10 mg/kg/day for ARB; 12 mg/kg/day for Hyd).

Molecule | LACS protein expression on hypertrophic agonist stimulation [2] | further results
COC(=O)[C@@H](N)CCCN=C(N)N[N+](=O)[O-].Cl [L-NAME, N^G-Nitro-L-arginine methyl ester, hydrochloride] | – | LACS mRNA expression level in cardiac tissues after L-NAME administration [1]: reaches its peak one to three days after L-NAME administration
C[C@@H](N)[C@H]1CC[C@H](C(=O)Nc2ccncc2)CC1 [Y27632] | – | Effect on the LACS expression increased by phenylephrine stimulation ([2]; cultured myocardial cells, simultaneous administration of 10 μM): suppressed
CNC[C@H](O)c1cccc(O)c1 [phenylephrine] | found to increase | –
Endothelin-1 (CSCSSLMDKECVYFCHLDIIW; disulfide 1-15, 3-11; ends not checked; UniProt P05305 53-73, looked up) [representative hypertrophic agonist] | found to increase | –
angiotensin II (DRVYIHPF; Angiotensin-2; UniProt P01019 25-32, looked up) [AngII, representative hypertrophic agonist] | found to increase | LACS expression in the heart after AngII administration [3]: increased LACS expression after the third day
